Data: doi:10.1101/2025.10.08.681114v1 (biorxiv, 2025)

Molecular target: CHI3L1 (hCHI3L1, CHI3L1-His, YKL-40) (Homo sapiens, UniProt P36222)
Test: microscale thermophoresis dose-response
Assay type: binding

CHI3L1 (hCHI3L1, CHI3L1-His, YKL-40), sequence (P36222 22-383): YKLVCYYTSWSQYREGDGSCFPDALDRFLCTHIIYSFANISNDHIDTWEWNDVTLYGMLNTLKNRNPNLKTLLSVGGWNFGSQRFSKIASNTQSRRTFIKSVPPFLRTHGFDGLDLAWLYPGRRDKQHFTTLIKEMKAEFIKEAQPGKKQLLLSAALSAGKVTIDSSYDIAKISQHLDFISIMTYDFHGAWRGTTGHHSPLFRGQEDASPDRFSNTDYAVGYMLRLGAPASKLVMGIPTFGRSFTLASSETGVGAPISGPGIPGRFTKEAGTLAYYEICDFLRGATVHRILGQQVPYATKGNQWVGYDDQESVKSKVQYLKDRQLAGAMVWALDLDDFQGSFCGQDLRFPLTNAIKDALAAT

- Kd: 182 ± 18 µM
Compound: COc1cc2cc(C3CCN(C(=O)c4csc(C)c4)CC3)ncc2cc1C [A9, compound A9]
